Columns and labels:
Assay type in all cases: physicochemical
[1] = F3 block stability study in sodium stearate aqueous gel (GC-MS); conditions: after 3 months
Experimental: Aqueous sodium stearate gel is a method used by SIGNS for several of the pheromones it markets (pork, poultry, rabbit). The sodium stearate matrix is cast at high temperature (60° C.) and contains 2% pheromone. In this study, matrix samples are taken by coring, and the active ingredients are extracted by apolar solvent, using the SIGNS-validated quality control method. Extracts are analyzed by GC-MS. […] Given this observation, formula F3 cannot be used in blocks for passive diffusion, so a change of galenic formulation is necessary.

[2] = F3 direct diffusion and mass loss, 40 mL and eight sticks with a refill; conditions: F3, eight sticks
Experimental: To that purpose, three devices containing 40 mL of F3 feline facial pheromone product and eight rattan sticks were prepared and left on diffusion. Every Monday, Wednesday and Friday, the diffusion of the pheromone in air was checked by analysis by gas chromatography coupled with mass spectrometer (GC/MS) and SPME (solid phase microextraction) until there was no liquid left. Then, the solution was refilled and a second study of the diffusion of the pheromone was performed.
Experimentally, the studied device was taken and placed into a closed space under identical conditions than in section E/, and for analyzing the same data.
Each measuring day, the devices were weighed and the level of the solution in the flask was controlled.

[3] = Indirect assay of diffuser blocks (GC/FID, pheromone remaining in the block); conditions: despecified pheromone
Experimental: Analyses were carried out using the gas chromatography (GC) technique with a flame ionization detector (FID), commonly known as GC/FID. The instrument used was the Shimadzu GC2025.® • Injection: Quantity injected: 1 μL, split 50:1, temperature: 230° C. • Separation: DB-WAX column (Agilent), length: 20 m, diameter: 180 μm, film thickness: […] • Carrier gas: Helium (He) • Analysis time: 11.50 min (not including time to return to equilibrium between each analysis) injection). • Detection: FID, temperature: 250° C., flow rates: H2: 40 mL/min, Air: 400 mL/min, Nitrogen (make-up): 30 mL/min. To obtain a representative sample, “cores” were drilled at various positions in the block and then collected. 2.5 g of gel were weighed into a 50 mL volumetric flask and the volume made up to the beginning of the neck of the flask with acetone. The flask was then placed in an ultrasonic bath for one hour until the block was dissolved (a white precipitate was obtained), then acetone was added to the mark. An aliquot of this solution was placed in a syringe fitted with a syringe filter and filtered to obtain a translucent solution. The resulting solution was transferred to a 1.5 mL GC vial for analysis. The assays were carried out using a calibration range.

[4] = Pheromone migrated to the stick tips (GC/FID); conditions: on stick tips, despecified pheromone
Experimental: In the course of this study, we also measured the amount of pheromone migrating on the sticks, to check that the pheromone had migrated to the top of the sticks, helping it to diffuse into the air. To do this, the test is the same as for the diffuser blocks: 2.5 g of stick tips are cut off and placed in a 50 mL flask, which is then placed in an ultrasonic bath for one hour. The resulting solution is filtered (to avoid injecting particles into the instrument) and placed in a chromatographic vial for analysis.

[5] = F3P PCDS direct diffusion (SPME GC/MS); conditions: 40 mL, 6 capillaries
Experimental: For this study, three diffusers each containing 40 mL of product and 6 capillaries were prepared and diffused. Every Monday, Wednesday and Friday, pheromone diffusion in the air was monitored by GC/MS and SPME (Solid Phase Micro Extraction) until no liquid remained.
Experimentally, the device studied was placed in a closed space (in our case an upturned aquarium) containing the SPME fiber. The set-up si the same as the set-up shown in Section D/above and in FIG. 24. The SPME fiber was left for 2 hours to give the molecules time to absorb onto the fiber, then the fiber was injected into the GC/MS instrument for analysis. Pheromone diffusion over time was then studied.
Same elements as in Section E/V. C. are reproduced in this section.

[6] = F3 sticks device, direct diffusion, 40 mL and four sticks (SPME GC/MS); conditions: four sticks
Experimental: Three devices containing 40 mL of F3 feline facial pheromone product and four rattan sticks were prepared and left on diffusion. Every Monday, Wednesday and Friday, the diffusion of the pheromone in air was checked by analysis by gas chromatography coupled with mass spectrometer (GC/MS) and SPME (solid phase microextraction) until there is no liquid left (about 22 days).
To that purpose, the studied device was taken and placed into a closed space (in our case an aquarium turned over) containing the SPME fiber as shown on FIG. 24.
The SPME fiber was left for two hours to give the time for the molecules to adsorb on the fiber, then the fiber was injected into the GC/MS instrument for analysis.
Analysis were carried out using gas chromatography with mass spectrometer. The instrument was a GCMS QP2010SE® from Shimadzu with an AOC6000® Autosampler. The separation was performed on a ZB-5 MS® column (30 m×0.25 mm×0.25 μm, stationary phase: 95% Dimethylpolysiloxane, 5% Phenyl-Arylene) from Phenomenex. The GC oven temperature was initially held at 100° C. for 1 minute then increased at a pace of 10° C./min to 120° C. and left at this temperature for 3 minutes. Finally, the oven temperature was increased at a pace of 10° C./min to 240° C. and left at this temperature for 10 minutes. The carrier gas was helium at 1 mL/min. Analysis were performed in split mode using a split/splitless injector (Temperature: 250° C., split: 1:20). The SPME fiber was directly injected into the injector and left for 30 minutes. Separated molecules were detected using a mass spectrometer which was operated in electron impact ionization (EI) in both full scan (FS) and single ion monitoring (SIM) modes, so called FASST (Fast Automated SCAN/SIM type) mode. The interface temperature was set at 300° C. and electron impact source temperature at 250° C. The analyser was a quadrupole.
For the measurement of the relative quantity of active ingredient spreading in air, the area of the chromatographic peak corresponding to the compound was measured using Shimadzu GCMS-Solution software.

With `CCCCCCCCCCCCCCCC(=O)OC` [methyl palmitate, methyl hexadecanoate] as the molecule, how does the “stability in the block” value [1] read?
The value was “remained stable”.

And the “intensity of direct diffusion” value [2]?
The value was “less intensity”.

What about the “% of the active ingredient in the pheromone” value (from here on “% of the active ingredient”) ([3]; day 0) of the same molecule?
Its value is 27.2%.

And the “% of the active ingredient” value ([3]; day 7)?
The value was 27.2%.

And the “% of the active ingredient” value ([3]; day 14)?
The value was 27.1%.

And the “% of the active ingredient” value ([3]; day 21)?
The value was 27.1%.

What about the “% of the active ingredient” value ([3]; day 28) of the same molecule?
Its value is 27.1%.

What about the “% of the active ingredient” value ([4]; day 7) of the same molecule?
Its value is 29.8%.

And the “% of the active ingredient” value ([4]; day 14)?
The value was 30.2%.

What about the “% of the active ingredient” value ([4]; day 21) of the same molecule?
Its value is 32.5%.

And the “direct diffusion over time” value [5]?
Its value is “increased over time”.

What about the “direct diffusion over time” value [6] of the same molecule?
The value was “slight increase of the diffusion over time”.

Which “stability in the block” value [1] does the source give for `CCCCCCCC/C=C\CCCCCCCC(=O)OC` [methyl oleate, methyl (Z)-octadec-9-enoate] here?
The value was “remained stable”.

And the “intensity of direct diffusion” value [2]?
Its value is “less intensity”.

And the “% of the active ingredient” value ([3]; day 0)?
The value was 30.4%.

What about the “% of the active ingredient” value ([3]; day 7) of the same molecule?
Its value is 30.6%.

And the “% of the active ingredient” value ([3]; day 14)?
The value was 30.6%.

And the “% of the active ingredient” value ([3]; day 21)?
The value was 30.7%.

And the “% of the active ingredient” value ([3]; day 28)?
The value was 30.7%.

And the “% of the active ingredient” value ([4]; day 7)?
Its value is 31.3%.

What about the “% of the active ingredient” value ([4]; day 14) of the same molecule?
The value was 31.5%.

And the “% of the active ingredient” value ([4]; day 21)?
The value was 32.6%.

And the “direct diffusion over time” value [5]?
The value was “increased over time”.

And the “direct diffusion over time” value [6]?
Its value is “slight increase of the diffusion over time”.
